Test results from US20210161900A1, “COMPOSITIONS AND METHODS FOR THE TREATMENT OF SENESCENT TUMOR CELLS” (Duke University, priority 2018, published 2021).

Tests used:
HCC827 and H1650 cells = assay: Cleaved caspase-3 immunoblot in proliferating or palbociclib-treated senescent NSCLC cells treated with PAR1 inhibitors; assay type: cell-based, human; details: for caspase-3 cleavage: HCC827 and H1650, palbociclib (0.5 μM, 7 days)-treated senescent cells, increasing doses of PAR1 inhibitor
Method: Because THBD is thought to signal primarily through PAR1, it was first tested whether, like THBD depletion, pharmacological PAR1 inhibition results in senescent cell death. For this, proliferating or palbociclib-treated senescent HCC827 and H1650 cells were treated with increasing doses of vorapaxar or SCH79797 and immunoblotted for cleaved caspase-3.

[1] = tested on: THBD in primary human bronchial epithelial (HBE) cells; assay: Gene expression profiling of erlotinib-induced senescent versus proliferating HBE cells; assay type: cell-based
Source text: Cell Res, 2018. 28(6): p. 625-643; Xiang, H., et al., UHRF1 is required for basal stem cell proliferation in response to airway injury. Cell Discov, 2017. 3: p. […] Cell Res, 2018. 28(6): p. 625-643).

NSCLC = details: monotherapy for NSCLC; cited from earlier work
MDA-MB-231 cells = assay: Cleaved caspase-3 immunoblot in proliferating and palbociclib-induced senescent MDA-MB-231 cells treated with vorapaxar; assay type: cell-based
Method: Proliferating and palbociclib-induced senescent MDA-MB-231 cells were treated with increasing doses of vorapaxar. Following treatment, cells were immunoblotted for cleaved caspase-3.

CC(C)c1ccc(Cn2ccc3c4c(N)nc(NC5CC5)nc4ccc32)cc1 [SCH79797]
caspase-3 cleavage (HCC827 and H1650 cells): dose-dependent increase

C#Cc1cccc(Nc2ncnc3cc(OCCOC)c(OCCOC)cc23)c1 [erlotinib]
THBD gene expression in senescent versus proliferating cells [1]: four-fold increase

CC(=O)c1c(C)c2cnc(Nc3ccc(N4CCNCC4)cn3)nc2n(C2CCCC2)c1=O [palbociclib]
adverse side effects (NSCLC): neutropenia and leukopenia

CCOC(=O)N[C@@H]1CC[C@@H]2[C@@H](C1)C[C@H]1C(=O)O[C@H](C)[C@H]1[C@H]2/C=C/c1ccc(-c2cccc(F)c2)cn1 [vorapaxar]
caspase-3 cleavage, senescent cells (MDA-MB-231 cells; palbociclib-induced senescent MDA-MB-231, increasing doses of vorapaxar (50 nM-1 μM), 24 h): dose-dependent increase | caspase-3 cleavage, proliferating cells (MDA-MB-231 cells; proliferating MDA-MB-231, increasing doses of vorapaxar): minimal increase | caspase-3 cleavage (HCC827 and H1650 cells): dose-dependent increase | lowest dose inducing caspase-3 cleavage (HCC827 and H1650 cells; combined with palbociclib): 25 nM
